The values that follow come from patent US11673889B2, “Substituted imidazo[4,5-c][1,8]naphthyridines as phosphodiesterase inhibitors” (Nanjing Zhengxiang Pharmaceuticals Co., Ltd., priority 2019, dated 2023).

Data set [1] has as its target T1, ENPP-1, HEK293 cells (Homo sapiens, UniProt P22413).
T1 construct: ENPP-1 were mainly expressed on the surface of cell membrane; endogenous in cells; host or cells: HEK293
T1 sequence (P22413 1-925): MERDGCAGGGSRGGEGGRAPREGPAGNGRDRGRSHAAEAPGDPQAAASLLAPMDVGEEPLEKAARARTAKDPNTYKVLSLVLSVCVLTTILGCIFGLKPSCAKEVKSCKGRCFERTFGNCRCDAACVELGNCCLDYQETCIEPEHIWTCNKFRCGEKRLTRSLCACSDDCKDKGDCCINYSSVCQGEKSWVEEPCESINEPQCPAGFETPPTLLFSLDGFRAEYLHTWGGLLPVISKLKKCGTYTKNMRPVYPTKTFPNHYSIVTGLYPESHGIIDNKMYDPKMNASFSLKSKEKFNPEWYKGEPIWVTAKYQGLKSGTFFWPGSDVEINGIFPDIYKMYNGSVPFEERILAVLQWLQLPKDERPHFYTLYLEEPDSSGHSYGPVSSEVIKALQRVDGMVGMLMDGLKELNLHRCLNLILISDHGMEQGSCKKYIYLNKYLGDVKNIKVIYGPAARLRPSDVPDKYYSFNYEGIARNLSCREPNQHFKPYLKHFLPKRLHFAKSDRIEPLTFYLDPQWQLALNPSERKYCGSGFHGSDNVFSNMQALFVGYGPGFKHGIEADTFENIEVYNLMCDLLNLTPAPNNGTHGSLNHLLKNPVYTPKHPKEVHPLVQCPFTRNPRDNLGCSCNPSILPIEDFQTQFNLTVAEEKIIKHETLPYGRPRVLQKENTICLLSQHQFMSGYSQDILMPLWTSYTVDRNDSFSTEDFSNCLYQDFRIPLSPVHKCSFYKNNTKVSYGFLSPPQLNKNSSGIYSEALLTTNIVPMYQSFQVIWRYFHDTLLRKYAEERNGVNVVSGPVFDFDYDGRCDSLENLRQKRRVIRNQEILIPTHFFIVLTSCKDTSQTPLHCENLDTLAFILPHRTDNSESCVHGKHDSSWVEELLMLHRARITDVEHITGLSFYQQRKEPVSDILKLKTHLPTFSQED
The experiment in a line: Cellular enzymatic assay of ENPP-1 inhibitors using TMP-pNP as substrate, HEK 293 cells. The format is cell-based. Conditions: for inhibition at 20 µM: HEK293, HEK 293 cells, read-out: Inhibition (at 20 μM). The procedure: (§1) ENPP-1 were mainly expressed on the surface of cell membrane where it hydrolytes 2′3′-cGAMP to generate 5′-GMP and 5′-AMP. ENPP-1 also has the ability to hydrolyzes artificial phosphoric acid ester TMP-pNP to nucleotide-5′-monophosphate and p-nitrophcnol there, which is a chromogenic product.
(§2) 8 point of different concentrations of each inhibitor were prepared with the final assay concentrations starting at 20 μM. 3× series dilution by DMEM medium without FBS was applied. Prior to adding inhibitors, 75000 cells per well were incubated at 37° C., 5% CO2 in DMEM for 24 hours. After removing the supernatant medium, 50 μL inhibitor solution was added into each well with cultured cells and incubate at 37° C., 5% CO2 for 60 minutes.
(§3) The IC50 values for percent inhibition versus compound concentration are determined by fitting the inhibition curves using a four-parameter variable slope model in GraphPad Prism® 8.

Data set [2] concerns the target T2, ENPP-1, MDA-MB-231 cells (Homo sapiens, UniProt P22413).
T2 sequence (P22413 1-925): T1 sequence (P22413 1-925)
The experiment in a line: cell-based. Conditions: for inhibition at 20 µM: MDA-MB-231, read-out: % Inhibition (at 20 μM).

Data set [3] has as its target T3, ENPP-1, Saos-2 cells (Homo sapiens, UniProt P22413).
T3 construct: ENPP-1 were mainly expressed on the surface of cell membrane; endogenous in cells; host or cells: Saos-2
T3 sequence (P22413 1-925): T1 sequence (P22413 1-925)
The experiment in a line: Cellular enzymatic assay of ENPP-1 inhibitors using TMP-pNP as substrate, Saos-2 cells. Type of data set: cell-based. As for the experimental part:
as §1, §2, §3

The target in data set [4] is T4, human soluble ENPP1 (Homo sapiens, UniProt P22413).
T4 construct: 20 ng of human soluble ENPP1
T4 sequence (P22413 103-925 limits assumed): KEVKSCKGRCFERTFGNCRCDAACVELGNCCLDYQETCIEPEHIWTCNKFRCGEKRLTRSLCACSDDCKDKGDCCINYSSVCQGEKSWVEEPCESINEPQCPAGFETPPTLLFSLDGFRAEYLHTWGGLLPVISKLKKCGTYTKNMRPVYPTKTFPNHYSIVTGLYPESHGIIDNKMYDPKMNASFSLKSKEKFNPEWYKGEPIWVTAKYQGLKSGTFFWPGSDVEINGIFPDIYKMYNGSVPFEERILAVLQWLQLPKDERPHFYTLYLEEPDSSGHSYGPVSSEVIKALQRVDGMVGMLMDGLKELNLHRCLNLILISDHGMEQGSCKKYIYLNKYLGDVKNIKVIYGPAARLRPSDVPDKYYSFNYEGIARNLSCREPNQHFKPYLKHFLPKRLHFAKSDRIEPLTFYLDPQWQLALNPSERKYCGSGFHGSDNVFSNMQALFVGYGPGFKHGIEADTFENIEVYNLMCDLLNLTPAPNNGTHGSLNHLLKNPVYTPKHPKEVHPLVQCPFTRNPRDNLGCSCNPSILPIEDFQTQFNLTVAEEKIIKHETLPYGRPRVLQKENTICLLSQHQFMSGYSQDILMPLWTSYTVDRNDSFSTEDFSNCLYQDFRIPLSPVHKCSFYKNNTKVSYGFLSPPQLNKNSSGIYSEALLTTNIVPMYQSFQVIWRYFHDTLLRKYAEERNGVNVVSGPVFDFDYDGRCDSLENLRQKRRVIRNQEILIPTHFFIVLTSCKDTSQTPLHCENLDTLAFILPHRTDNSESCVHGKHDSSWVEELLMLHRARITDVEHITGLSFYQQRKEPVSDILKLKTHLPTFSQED
The experiment in a line: ENPP1 activity assay using p-Nitrophenyl-5′-TMP as a substrate. The format is biochemical. An outline of the steps: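 Human soluble ENPP1 (20 ng) was preincubated with inhibitor for 30 min at room temperature. TMP-pNP was then added as a 2 mM […] solution and incubated 1 h at RT, with p-nitrophenol formation read by OD. IC50 came from four-parameter fits of % inhibition relative to no-inhibitor and blank controls.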

Data set [5] can be described thus: Liver microsome stability, mouse. Type of data set: in vitro ADME. The procedure: Liver microsome assay was used to evaluate the metabolic stability of I-VI. The test article at the concentration of […] was incubated with 0.5 mg/mL liver microsome in the presence of NADPH and UDPGA as the co-factors for 0, 15, 30, 45 and 60 minutes. The incubation was carried out at 37° C. with 5% CO2 and saturating humidity. Disappearance of the test article was monitored by LC/MS/MS. the disappearance half-life (t1/2), intrinsic clearance and hepatic extraction ratio were determined.

For the compound `COc1cc2ncc3ncn(Cc4ccc(S(N)(=O)=O)cn4)c3c2cc1OC` [Compound 12, 6-((7,8-dimethoxy-1H-imidazo[4,5-c]quinolin-1-yl)methyl)pyridine-3-sulfonamide], the IC50 in data set [1] amounted to 2300 nM; in data set [2], 550 nM; in data set [3], 1000 nM; in data set [4] it was 1.2 nM. The inhibition at 20 µM amounted to 85% in data set [1]; 79% in data set [2]; 87% in data set [3] (Saos-2 cells, @20 μM, read-out: % Inhibition (@20 μM)). Moreover, in data set [5] (Mouse liver microsome), the “Hepatic extraction ratio Re” value is given as 0.20. In addition, the half-life in data set [5] (liver microsomes, Mouse liver microsome 0.5 mg/mL, NADPH and UDPGA, 37° C., read-out: Half-life t1/2) came to 3.95 h. The microsomal CLint in data set [5] (liver microsomes, Mouse liver microsome, read-out: Intrinsic clearance Cl′int, (μL/min/mg protein)) stood at 5.9 µL/min/mg.

As to `COc1ccc2c(ncc3nc(C)n(Cc4ccc(S(N)(=O)=O)cc4)c32)n1` [Compound 48, 4-((7-methoxy-2-methyl-1H-imidazo[4,5-c][1,8]naphthyridin-1-yl)methyl)benzenesulfonamide], the results for the IC50 in data set [1], in data set [2] and in data set [4] were 670 nM, 550 nM and 0.29 nM, respectively. Moreover, the inhibition at 20 µM in data set [1] amounted to 95%; in data set [2] it was 80%.

`COc1ccc2c(n1)nc(C)c1nc(C)n(Cc3ccc(S(N)(=O)=O)cn3)c12` [Compound 89, 6-((7-methoxy-2,4-dimethyl-1H-imidazo[4,5-c][1,8]naphthyridin-1-yl)methyl)pyridine-3-sulfonamide]: the IC50 turned out to be 410 nM in data set [2] and 0.52 nM in data set [4]. Also, in data set [2], the inhibition at 20 µM came out at 78%.
